Test results published in patent publication US9233185B2, “Absorbent article” (UNICHARM CORPORATION, priority 2012, dated 2016).

Tests used:
[1] = Rewetting rate of sanitary napkin with top sheet coated with blood modifying agent; settings: horse EDTA blood 3.0 g twice at 37±1° C.; agent coated on top sheet at about 5 g/m^2
Method: A commercially available sanitary napkin was prepared. The sanitary napkin was formed from a top sheet, formed of a hydrophilic agent-treated air-through nonwoven fabric (composite fiber composed of polyester and polyethylene terephthalate, basis weight: 35 g/m^2), a second sheet, formed of an air-through nonwoven fabric (composite fiber composed of polyester and polyethylene terephthalate, basis weight: 30 g/m^2), an absorbent body comprising pulp (basis weight: 150-450 g/m^2, increased at the center section), an acrylic super-absorbent polymer (basis weight: 15 g/m^2) and tissue as a core wrap, a water-repellent agent-treated side sheet, and a back sheet composed of a polyethylene film.
(§1) The skin contact surface of the top sheet of the sanitary napkin was coated with the aforementioned blood modifying agent. Each blood modifying agent was used directly, when the blood modifying agent was liquid at room temperature, or when the blood modifying agent was solid at room temperature it was heated to its melting point +20° C., and a control seam HMA gun was used for atomization of the blood modifying agent and coating onto the entire skin contact surface of the top sheet to a basis weight of about 5 g/m^2.
(§2) An acrylic board with an opened hole (200 mm×100 mm, 125 g, with a 40 mm×10 mm hole opened at the center) was placed on a top sheet comprising each blood modifying agent, and 3.0 g of horse EDTA blood at 37±1° C. (obtained by adding ethylenediaminetetraacetic acid (hereunder, “EDTA”) to horse blood to prevent coagulation) was dropped through the hole using a pipette (once), and after 1 minute, 3.0 g of horse EDTA blood at 37±1° C. was again added dropwise through the acrylic board hole with a pipette (twice).
After the second dropping of blood, the acrylic board was immediately removed and 10 sheets of filter paper (Advantec Toyo Kaisha, Ltd, Qualitative Filter Paper No. 2, 50 mm×35 mm) were placed on the location where the blood had been dropped, and then a weight was placed thereover to a pressure of 30 g/cm^2. After 1 minute, the filter paper was removed, and the “rewetting rate” was calculated by the following formula. Rewetting rate(%)=100×(filter paper mass after test−initial filter paper mass)/6

[2] = Visual evaluation of whiteness of skin contact surface of top sheet; parameters: species or system horse; key: VG (Very Good): Virtually no redness of blood remaining, and no clear delineation between areas with and without blood.; G (Good): Slight redness of blood remaining, but difficult to delineate between areas with and without blood.; F (Fair): Slight redness of blood remaining, areas with blood discernible.; P (Poor): Redness of blood completely remaining; settings: after absorbent body migration rate test
Description: The whiteness of the skin contact surface of the top sheet after the absorbent body migration rate test was visually evaluated on the following scale.
VG (Very Good): Virtually no redness of blood remaining, and no clear delineation between areas with and without blood.
G (Good): Slight redness of blood remaining, but difficult to delineate between areas with and without blood.
F (Fair): Slight redness of blood remaining, areas with blood discernible.
P (Poor): Redness of blood completely remaining.

[3] = Description: The term “solubility” used herein in regard to water solubility includes cases where the sample completely dissolves in deionized water to form a homogeneous mixture, and cases where the sample is completely emulsified. Here, “completely” means that no mass of the sample remains in the deionized water.
[4] = Absorbent body migration rate after second dropping of blood; settings: time after second dropping of horse EDTA blood; agent about 5 g/m^2
Method: as §1, §2
In addition to the rewetting rate evaluation, the “absorbent body migration rate” was also measured as the time until migration of blood from the top sheet to the absorbent body after the second dropping of blood. The absorbent body migration rate is the time from introducing the blood onto the top sheet, until the redness of the blood […] on the surface and in the interior of the top sheet.

[5] = Surface tension of blood containing blood modifying agent, pendant drop method; settings: sheep defibrinated blood; amount 0.10 mass %; 35 ° C.
Method: The surface tension of blood containing a blood modifying agent was measured by the pendant drop method, using a Drop Master500 contact angle meter by Kyowa Interface Science Co., Ltd. The surface tension was measured after adding a prescribed amount of blood modifying agent to sheep defibrinated blood, and thoroughly shaking. The measurement was accomplished automatically with a device, and the surface tension γ was determined by the following formula (see FIG. 10). γ=g×ρ×(de)^2×1/H The density ρ was measured at the temperatures listed in Table 7, according to JIS K 2249-1995, “Density test methods and density/mass/volume conversion tables”, “5. Vibrating density test method”. The measurement was accomplished using a DA-505 by Kyoto Electronics Co., Ltd.

| Compound | Rewetting rate [1] | Top sheet whiteness [2] | Water solubility [3] | Absorbent body migration rate [4] | Surface tension [5] |
| --- | --- | --- | --- | --- | --- |
| CCCCCCCCCCCC(=O)OCC(O)CO (centres unmarked) [90-L2 Lauric acid monoglyceride, lauric acid monoglyceride] | 6.2% | P | – | – | – |
| CC(C)CCCCCCCCCCCCCCCOC(=O)CC(O)C(=O)OCCCCCCCCCCCCCCCC(C)C (centres unmarked) [Diisostearyl malate] | 5.5% | F | 20< g | 8 s | – |
| CCCCCCCCOC(=O)CCCCC(=O)OCCCCCCCC [Dioctyl adipate] | 1.7% | VG | – | 6 s | – |
| CCCCCCCCCCCCOC(=O)CCCCCCCCCCC [ELECTOL WE20, Ester of dodecanoic acid (C12) and dodecyl alcohol (C12)] | 1.8% | VG | – | – | 58.8 mN/m |
| CCCCCCCCCCCCCC(=O)OCCCCCCCCCCCC [ELECTOL WE40, Ester of tetradecanoic acid (C14) and dodecyl alcohol (C12)] | 1.8% | VG | – | 4 s | – |
| CCCCC(CC)C(=O)OCC(C)(C)COC(=O)C(CC)CCCC (centres unmarked) [H-208BRS, Neopentyl glycol di(2-ethylhexanoate)] | 2.0% | VG | <0.05 g | 5 s | – |
| CCCCC(CC)C(=O)OCC(COC(=O)C(CC)CCCC)(COC(=O)C(CC)CCCC)COC(=O)C(CC)CCCC (centres unmarked) [H-408BRS, Pentaerythritol tetra(2-ethylhexanoate)] | – | VG | – | – | – |
| CCCCC(CC)C(=O)OCC(COC(=O)C(CC)CCCC)OC(=O)C(CC)CCCC (centres unmarked) [PANACET 800B] | 2.0% | VG | <0.05 g | 3 s | – |
| CCCCCCCC(=O)OCC(COC(=O)CCCCCCC)OC(=O)CCCCCCC [PANACET 800] | 0.3% | VG | <0.05 g | 3 s | – |
| CCCCOC(=O)CC(CC(=O)OCCCC)(OC(C)=O)C(=O)OCCCC [Tributyl O-acetylcitrate] | 6.2% | VG | <0.05 g | 8 s | – |
| Caprylic acid diglyceride [Caprylic diglyceride] | 4.2% | G | – | 9 s | – |
| Isopropyl citrate | 12.2% | G | – | 5 s | – |
